In brackets after ≈: the same amount, converted by molar mass. Several values for one entry are separate records, joined by “and”; a condition that tells them apart may be missing. Equal entries are not always repeated. Where two headings read alike, the source gives them in different places.
Key:
[1] = test system: Mycobacterium smegmatis, Mycobacterium tuberculosis, and Mycobacterium avium; experiment: organism not typed; format: cell-based; conditions: read-out: MICs, inhibition of mycobacterial growth
[2] = test system: Mycobacterium tuberculosis H37Rv; experiment: Microplate Alamar Blue assay (MABA) MIC, M. tuberculosis; format: cell-based; conditions: read-out: MIC Mycobacterium tuberculosis H37Rv
Excerpt: (§1) Minimal inhibitory concentrations (MICs) in Mycobacterium tuberculosis H37Rv and Mycobacterium avium ATCC 25291 were quantified using microplate Alamar Blue assays as described (MABA; [Collins, L. & Franzblau, S. (1997) Microplate Alamar Blue assay versus BACTEC 460 system for high-throughput screening of compounds against Mycobacterium tuberculosis and Mycobacterium avium. Antimicrob. Agents Chemother. 41, 1004-1009]).

[3] = test system: Vero E6 ATCC CRL1586 cells; experiment: Mammalian-cell cytotoxicity, minimal cytotoxic concentration (CellTiter96); format: cell-based
Protocol: Minimal cytotoxic concentrations (MCCs) against mammalian cells in culture were determined using Vero E6 ATCC CRL1586 cells and the CellTiter96 assay kit (Promega, Inc.). […]

[4] = test system: AAP1-resistant mutants, derivatives of M. smegmatis ATCC19420; experiment: MICs in AAP1-resistant mutants (resistance and cross-resistance levels); format: cell-based, Mycobacterium smegmatis; conditions: MICs in AAP1-resistant mutants
[5] = test system: Mycobacterium avium ATCC 25291; experiment: Microplate Alamar Blue assay (MABA) MIC, M. avium; format: cell-based; conditions: ATCC25291, M. avium ATCC 25291
Excerpt: as §1

[6] = test system: Mycobacterium smegmatis ATCC 19420; experiment: Broth microdilution MIC, M. smegmatis; format: cell-based; conditions: Mycolicibacterium smegmatis
Excerpt: (§2) MICs in Mycobacterium smegmatis ATCC 19420 and Mycobacterium smegmatis ATCC 19420 derivatives were quantified using broth microdilution assays as described [Clinical and Laboratory Standards Institute (CLSI/NCCLS) (2009) Methods for Dilution Antimicrobial Susceptibility Tests for Bacteria That Grow Aerobically; Approved Standard, Eighth Edition. CLIS Document M07-A8 (CLIS, Wayne Pa.)].

[7] = test system: rifampin-resistant mutants, derivatives of M. smegmatis ATCC19420; experiment: MICs in rifampin-resistant mutants (cross-resistance levels); format: cell-based, Mycobacterium smegmatis
Excerpt: as §2

[8] = molecular target: Mycobacterium tuberculosis RNA polymerase (Mycobacterium tuberculosis, UniProt P9WGY7+P9WGY9); experiment: Run-off transcription assay with Mycobacterium tuberculosis RNA polymerase (radiochemical); format: biochemical
Protocol: Run-off transcription assays with Mycobacterium tuberculosis RNA polymerase were performed using reaction mixtures containing (10 μl): 0-100 μM test compound, 75 nM Mycobacterium tuberculosis RNA polymerase core enzyme, 300 nM Mycobacterium tuberculosis σ^A, 20 nM 130 bp DNA fragment containing positions −100 to −1 of the bacteriophage […] N25 promoter followed by positions +1 to +30 of the lacUV5-15 promoter of [Mukhopadhyay, J., Kapanidis, A., Mekler, V., Kortkhonjia, E., Ebright, Y., Ebright, R. (2001) Cell 106, 453-463], 25 nM [alpha-^32P]UTP (600 Bq/pmol) for an initial 2 min at 37° C. and 100 μM [alpha-^32P]UTP (6 Bq/pmol) for a subsequent 5 min at 37° C., 100 μM ATP, 100 μM GTP, 100 μM UTP, 100 μM CTP, 40 mM Tris-HCl, pH 8.0, 80 mM NaCl, 5 mM MgCl2, 2.5 mM DTT, and 12.7% glycerol. Reactions were terminated by addition of […] 80% formamide, 10 mM EDTA, 0.04% bromophenol blue, and 0.04% xylene cyanol, followed by heating for 5 min at 90° C. Reaction products were resolved by 15% urea-PAGE, and quantified using a storage-phosphor scanner.

[9] = ATCC19420, M. smegmatis ATCC 19420, read-out: MIC Mycobacterium smegmatis ATCC 19420
[10] = IC50 Mycobacterium tuberculosis RNA polymerase

Mycobacterium tuberculosis RNA polymerase, sequence (P9WGZ1 whole entry, the tested form may be a part): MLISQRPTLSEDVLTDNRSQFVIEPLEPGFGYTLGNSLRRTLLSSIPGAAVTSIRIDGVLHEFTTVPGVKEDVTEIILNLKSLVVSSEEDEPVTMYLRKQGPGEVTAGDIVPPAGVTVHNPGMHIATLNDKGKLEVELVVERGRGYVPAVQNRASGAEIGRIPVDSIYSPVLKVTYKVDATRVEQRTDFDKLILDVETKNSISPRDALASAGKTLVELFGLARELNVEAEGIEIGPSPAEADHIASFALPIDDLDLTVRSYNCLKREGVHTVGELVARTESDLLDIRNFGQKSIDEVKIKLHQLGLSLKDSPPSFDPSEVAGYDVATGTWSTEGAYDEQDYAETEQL
Mycobacterium tuberculosis RNA polymerase, sequence (P9WGY5 whole entry, further chain, the tested form may be a part): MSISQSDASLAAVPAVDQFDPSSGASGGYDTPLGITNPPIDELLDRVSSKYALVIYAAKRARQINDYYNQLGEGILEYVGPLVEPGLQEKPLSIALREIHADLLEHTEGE
Mycobacterium tuberculosis RNA polymerase, sequence (P9WGY9 whole entry, the tested form may be a part): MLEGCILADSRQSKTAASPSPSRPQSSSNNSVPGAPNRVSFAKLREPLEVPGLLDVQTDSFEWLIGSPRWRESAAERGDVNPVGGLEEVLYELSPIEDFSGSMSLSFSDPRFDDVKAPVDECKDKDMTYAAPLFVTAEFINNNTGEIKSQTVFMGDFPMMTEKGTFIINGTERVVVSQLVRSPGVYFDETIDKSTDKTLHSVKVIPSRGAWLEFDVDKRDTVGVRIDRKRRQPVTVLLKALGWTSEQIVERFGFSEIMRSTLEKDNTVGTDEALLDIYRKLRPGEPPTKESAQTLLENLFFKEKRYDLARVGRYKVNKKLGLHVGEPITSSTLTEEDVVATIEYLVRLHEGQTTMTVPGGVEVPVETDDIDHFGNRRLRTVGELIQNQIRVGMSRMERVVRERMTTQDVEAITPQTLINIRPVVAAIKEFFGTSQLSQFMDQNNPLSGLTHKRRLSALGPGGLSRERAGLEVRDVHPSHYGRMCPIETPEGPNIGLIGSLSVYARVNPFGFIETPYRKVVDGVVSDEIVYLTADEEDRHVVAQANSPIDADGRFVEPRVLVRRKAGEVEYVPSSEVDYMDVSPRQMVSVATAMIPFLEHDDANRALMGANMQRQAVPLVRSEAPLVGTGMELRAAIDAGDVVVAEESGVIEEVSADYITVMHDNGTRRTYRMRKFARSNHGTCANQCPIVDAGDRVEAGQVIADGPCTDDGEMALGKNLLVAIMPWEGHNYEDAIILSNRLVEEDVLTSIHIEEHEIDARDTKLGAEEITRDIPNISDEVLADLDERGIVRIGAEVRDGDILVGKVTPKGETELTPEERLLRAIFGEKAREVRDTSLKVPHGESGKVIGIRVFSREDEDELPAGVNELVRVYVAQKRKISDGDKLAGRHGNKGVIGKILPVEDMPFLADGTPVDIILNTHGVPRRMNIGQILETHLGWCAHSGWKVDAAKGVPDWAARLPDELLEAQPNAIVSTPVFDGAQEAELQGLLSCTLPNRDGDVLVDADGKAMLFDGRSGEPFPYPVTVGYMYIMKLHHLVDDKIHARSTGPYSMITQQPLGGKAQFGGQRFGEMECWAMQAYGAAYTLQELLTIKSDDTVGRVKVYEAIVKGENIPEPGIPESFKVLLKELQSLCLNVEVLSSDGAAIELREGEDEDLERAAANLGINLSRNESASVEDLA
Mycobacterium tuberculosis RNA polymerase, sequence (P9WGI1 whole entry, further chain, the tested form may be a part): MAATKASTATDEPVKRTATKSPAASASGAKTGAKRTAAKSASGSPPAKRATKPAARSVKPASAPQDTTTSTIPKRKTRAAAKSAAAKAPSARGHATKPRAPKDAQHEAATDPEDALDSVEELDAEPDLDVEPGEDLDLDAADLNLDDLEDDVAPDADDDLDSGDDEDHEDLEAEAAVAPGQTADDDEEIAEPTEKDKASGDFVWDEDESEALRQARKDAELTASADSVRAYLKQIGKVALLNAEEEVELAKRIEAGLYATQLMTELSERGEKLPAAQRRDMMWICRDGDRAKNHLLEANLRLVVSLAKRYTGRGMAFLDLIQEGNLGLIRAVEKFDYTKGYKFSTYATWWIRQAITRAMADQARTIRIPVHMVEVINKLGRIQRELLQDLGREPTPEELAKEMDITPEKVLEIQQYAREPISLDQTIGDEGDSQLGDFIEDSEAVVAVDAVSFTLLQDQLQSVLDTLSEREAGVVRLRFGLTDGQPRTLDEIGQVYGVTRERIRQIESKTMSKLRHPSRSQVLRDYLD
Mycobacterium tuberculosis RNA polymerase, sequence (P9WGY7 whole entry, the tested form may be a part): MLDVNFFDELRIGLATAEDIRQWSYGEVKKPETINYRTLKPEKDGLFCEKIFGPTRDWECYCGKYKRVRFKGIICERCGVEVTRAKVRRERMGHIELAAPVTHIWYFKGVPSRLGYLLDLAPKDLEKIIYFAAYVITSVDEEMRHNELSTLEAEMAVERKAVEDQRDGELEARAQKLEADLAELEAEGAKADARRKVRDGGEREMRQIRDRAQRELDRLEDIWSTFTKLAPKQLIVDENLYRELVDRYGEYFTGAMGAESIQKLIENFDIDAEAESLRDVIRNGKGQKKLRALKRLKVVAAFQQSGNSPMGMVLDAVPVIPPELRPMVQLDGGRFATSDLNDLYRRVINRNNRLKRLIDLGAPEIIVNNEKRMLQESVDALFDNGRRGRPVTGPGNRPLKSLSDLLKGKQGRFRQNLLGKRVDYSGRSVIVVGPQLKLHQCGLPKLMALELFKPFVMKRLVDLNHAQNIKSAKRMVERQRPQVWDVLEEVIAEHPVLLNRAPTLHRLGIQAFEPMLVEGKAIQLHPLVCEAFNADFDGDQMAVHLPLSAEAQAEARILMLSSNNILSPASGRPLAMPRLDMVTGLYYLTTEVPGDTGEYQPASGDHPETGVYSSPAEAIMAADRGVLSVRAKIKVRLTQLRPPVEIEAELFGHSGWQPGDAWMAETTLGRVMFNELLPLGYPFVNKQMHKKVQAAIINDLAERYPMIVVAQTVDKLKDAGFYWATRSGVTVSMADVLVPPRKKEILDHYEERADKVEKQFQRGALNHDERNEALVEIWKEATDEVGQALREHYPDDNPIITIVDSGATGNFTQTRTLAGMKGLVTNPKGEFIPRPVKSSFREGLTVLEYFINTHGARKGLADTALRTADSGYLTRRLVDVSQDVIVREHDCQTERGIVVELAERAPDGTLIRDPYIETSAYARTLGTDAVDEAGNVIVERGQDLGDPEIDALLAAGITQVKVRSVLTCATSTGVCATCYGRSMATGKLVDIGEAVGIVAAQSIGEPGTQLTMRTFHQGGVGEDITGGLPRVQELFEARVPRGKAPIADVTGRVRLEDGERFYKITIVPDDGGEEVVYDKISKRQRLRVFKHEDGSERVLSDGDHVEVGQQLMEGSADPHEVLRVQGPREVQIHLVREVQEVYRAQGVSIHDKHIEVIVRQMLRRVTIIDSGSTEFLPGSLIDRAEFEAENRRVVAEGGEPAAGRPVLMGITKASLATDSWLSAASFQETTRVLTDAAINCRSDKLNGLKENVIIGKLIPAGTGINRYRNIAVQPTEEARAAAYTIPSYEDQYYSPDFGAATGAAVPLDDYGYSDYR

O=C(NC(Cc1ccccc1)C(=O)Nc1cc(F)ccc1N1CCNCC1)c1ccccc1F (racemic) [IX-214, 2-fluoro-N-(1-((5-fluoro-2-(piperazin-1-yl)phenyl)amino)-1-oxo-3-phenylpropan-2-yl)benzamide]
MIC [1]: ≥ 0.073 µg/mL | MIC [2]: 1.56 µg/mL (≈ 3.36 µM) | MCC mammalian cells Vero E6 ATCC CRL1586 [3]: 7 µg/mL | cross-resistance of AAP1-resistant mutants to the compound [4]: cross-resistance | MIC [5]: 1.56 µg/mL (≈ 3.36 µM) | MIC [6, 9]: 0.195 µg/mL (≈ 0.42 µM) | cross-resistance of rifampin-resistant mutants to the compound [7]: No rifampin-resistant mutant was found to exhibit cross-resistance

Cc1ccccc1NC(=O)C(Cc1ccc(O)cc1)NC(=O)c1ccccc1 (stereo not shown) [I-13, N-(3-(4-hydroxyphenyl)-1-oxo-1-(o-tolylamino)propan-2-yl)benzamide]
MIC [2]: 12.5 µg/mL (≈ 33.4 µM) | MCC mammalian cells Vero E6 ATCC CRL1586 [3]: 37 µg/mL | cross-resistance of AAP1-resistant mutants to the compound [4]: cross-resistance | MIC [5]: 25 µg/mL (≈ 66.8 µM) | MIC [6, 9]: 0.195 µg/mL (≈ 0.521 µM) | cross-resistance of rifampin-resistant mutants to the compound [7]: No rifampin-resistant mutant was found to exhibit cross-resistance

Cc1ccc(Cl)cc1NC(=O)C(Cc1ccccc1)NC(=O)c1ccccc1 (stereo not shown) [I-86]
IC50 [8, 10]: 920 nM | MIC [2]: 1.56 µg/mL (≈ 3.97 µM) | MCC mammalian cells Vero E6 ATCC CRL1586 [3]: 13 µg/mL | MIC [5]: 3.12 µg/mL (≈ 7.95 µM) | MIC [6, 9]: 0.195 µg/mL (≈ 0.496 µM) | cross-resistance of rifampin-resistant mutants to the compound [7]: No rifampin-resistant mutant was found to exhibit cross-resistance

Cc1ccc(Cl)cc1NC(=O)C(Cc1ccccc1)NC(=O)c1ccccc1F (stereo not shown) [IX-55, N-(1-((5-chloro-2-methylphenyl)amino)-1-oxo-3-phenylpropan-2-yl)-2-fluorobenzamide]
IC50 [8, 10]: 470 nM | MIC [2]: 1.56 µg/mL (≈ 3.8 µM) | MCC mammalian cells Vero E6 ATCC CRL1586 [3]: 10 µg/mL | cross-resistance of AAP1-resistant mutants to the compound [4]: cross-resistance | MIC [5]: 3.12 µg/mL (≈ 7.61 µM) | MIC [6, 9]: 0.39 µg/mL (≈ 0.949 µM)

COc1ccc(F)cc1NC(=O)C(Cc1ccccc1)NC(=O)c1ccccc1 (stereo not shown) [IX-73, N-(1-((5-fluoro-2-methoxyphenyl)amino)-1-oxo-3-phenylpropan-2-yl)benzamide]
MIC [2]: 1.56 µg/mL (≈ 3.98 µM) | MCC mammalian cells Vero E6 ATCC CRL1586 [3]: >100 µg/mL | cross-resistance of AAP1-resistant mutants to the compound [4]: cross-resistance | MIC [5]: 0.78 µg/mL (≈ 1.99 µM) | MIC [6, 9]: 0.19 µg/mL (≈ 0.484 µM)

O=C(NC(Cc1ccccc1)C(=O)Nc1ccccc1N1CCNCC1)c1ccccc1F (stereo not shown) [IX-211, 2-fluoro-N-(1-oxo-3-phenyl-1-((2-(piperazin-1-yl)phenyl)amino)-propan-2-yl)benzamide]
MIC [2]: 1.56 µg/mL (≈ 3.49 µM) | MCC mammalian cells Vero E6 ATCC CRL1586 [3]: 18 µg/mL | cross-resistance of AAP1-resistant mutants to the compound [4]: cross-resistance | MIC [5]: 1.56 µg/mL (≈ 3.49 µM) | MIC [6, 9]: 0.09 µg/mL (≈ 0.202 µM)

Cc1ccccc1C(=O)NC(Cc1ccccc1)C(=O)Nc1ccccc1N1CCNCC1 (stereo not shown) [IX-212, 2-methyl-N-(1-oxo-3-phenyl-1-((2-(piperazin-1-yl)phenyl)amino)-propan-2-yl)benzamide]
MIC [2]: 1.56 µg/mL (≈ 3.52 µM) | MCC mammalian cells Vero E6 ATCC CRL1586 [3]: 15 µg/mL | cross-resistance of AAP1-resistant mutants to the compound [4]: cross-resistance | MIC [5]: 1.56 µg/mL (≈ 3.52 µM) | MIC [6, 9]: 0.097 µg/mL (≈ 0.219 µM)

O=C(NC(Cc1ccccc1)C(=O)Nc1ccccc1N1CCNCC1)c1cccs1 (stereo not shown) [IX-213, N-(1-oxo-3-phenyl-1-((2-(piperazin-1-yl)phenyl)amino)propan-2-yl)thiophene-2-carboxamide]
MIC [2]: 1.56 µg/mL (≈ 3.59 µM) | MCC mammalian cells Vero E6 ATCC CRL1586 [3]: 33 µg/mL | cross-resistance of AAP1-resistant mutants to the compound [4]: cross-resistance | MIC [5]: 0.78 µg/mL (≈ 1.79 µM) | MIC [6, 9]: 0.097 µg/mL (≈ 0.223 µM)

O=C(N[C@H](Cc1ccccc1)C(=O)Nc1cc(F)ccc1N1CCNCC1)c1ccccc1F [IX-214a, (R)-2-fluoro-N-(1-((5-fluoro-2-(piperazin-1-yl)phenyl)amino)-1-oxo-3-phenylpropan-2-yl)benzamide]
MIC [1]: ≥ 0.073 µg/mL | MIC [2]: 0.78 µg/mL (≈ 1.68 µM) | MIC [5]: < 0.195 µg/mL | MIC [6, 9]: 0.073 µg/mL (≈ 0.157 µM)

Cc1ccccc1C(=O)NC(Cc1ccccc1)C(=O)Nc1cc(F)ccc1N1CCNCC1 (stereo not shown) [IX-215, N-(1-((5-fluoro-2-(piperazin-1-yl)phenyl)amino)-1-oxo-3-phenylpropan-2-yl)-2-methylbenzamide]
IC50 [8, 10]: 140 nM | MIC [2]: 1.56 µg/mL (≈ 3.39 µM) | MCC mammalian cells Vero E6 ATCC CRL1586 [3]: 7 µg/mL | cross-resistance of AAP1-resistant mutants to the compound [4]: cross-resistance | MIC [5]: 0.78 µg/mL (≈ 1.69 µM) | MIC [6, 9]: 0.19 µg/mL (≈ 0.413 µM) | cross-resistance of rifampin-resistant mutants to the compound [7]: No rifampin-resistant mutant was found to exhibit cross-resistance

O=C(NC(Cc1ccccc1)C(=O)Nc1cc(F)ccc1N1CCNCC1)c1cccs1 (stereo not shown) [IX-216, N-(1-((5-fluoro-2-(piperazin-1-yl)phenyl)amino)-1-oxo-3-phenylpropan-2-yl)thiophene-2-carboxamide]
IC50 [8, 10]: 280 nM | MIC [2]: 1.56 µg/mL (≈ 3.45 µM) | MCC mammalian cells Vero E6 ATCC CRL1586 [3]: 11 µg/mL | cross-resistance of AAP1-resistant mutants to the compound [4]: cross-resistance | MIC [5]: 0.78 µg/mL (≈ 1.72 µM) | MIC [6, 9]: 0.097 µg/mL (≈ 0.214 µM) | cross-resistance of rifampin-resistant mutants to the compound [7]: No rifampin-resistant mutant was found to exhibit cross-resistance

O=C(NC(Cc1ccccc1)C(=O)Nc1cccc2scnc12)c1ccccc1 (stereo not shown) [IX-235, N-(1-(benzo[d]thiazol-4-ylamino)-1-oxo-3-phenylpropan-2-yl)benz-amide]
MIC [2]: 3.12 µg/mL (≈ 7.78 µM) | cross-resistance of AAP1-resistant mutants to the compound [4]: cross-resistance | MIC [5]: 6.25 µg/mL (≈ 15.6 µM) | MIC [6, 9]: 0.78 µg/mL (≈ 1.94 µM)

O=C(N[C@H](Cc1ccccc1)C(=O)Nc1cc(Cl)ccc1N1CCNCC1)c1ccccc1F [IX-274a, (R)—N-(1-((5-chloro-2-(piperazin-1-yl)phenyl)amino)-1-oxo-3-phenylpropan-2-yl)-2-fluorobenzamide]
MIC [1]: ≥ 0.073 µg/mL | IC50 [8, 10]: 17 nM | IC50 ([8]; Inhibition of mycobacterial RNA polymerase (IC50s), radiochemical transcription assays, M. tuberculosis RNA polymerase): ≥ 10 nM and 10 to 74 nM | MIC [2]: 0.78 µg/mL (≈ 1.62 µM) | MIC [5]: 0.39 µg/mL (≈ 0.811 µM) | MIC [6, 9]: 0.073 µg/mL (≈ 0.152 µM)

Cc1ccccc1C(=O)NC(Cc1ccccc1)C(=O)Nc1cc(Cl)ccc1N1CCNCC1 (stereo not shown) [IX-275, N-(1-((5-chloro-2-(piperazin-1-yl)phenyl)amino)-1-oxo-3-phenyl-propan-2-yl)-2-methylbenzamide]
IC50 [8, 10]: 100 nM | MIC [2]: 1.56 µg/mL (≈ 3.27 µM) | MCC mammalian cells Vero E6 ATCC CRL1586 [3]: 12.5 µg/mL | cross-resistance of AAP1-resistant mutants to the compound [4]: cross-resistance | MIC [5]: 0.78 µg/mL (≈ 1.64 µM) | MIC [6, 9]: 0.39 µg/mL (≈ 0.818 µM)

COc1ccc(F)cc1NC(=O)C(Cc1ccccc1)NC(=O)c1ccccc1F (stereo not shown) [IX-276, 2-fluoro-N-(1-((5-fluoro-2-methoxyphenyl)amino)-1-oxo-3-phenyl-propan-2-yl)benzamide]
MIC [2]: 0.16 µg/mL (≈ 0.39 µM) | cross-resistance of AAP1-resistant mutants to the compound [4]: cross-resistance | MIC [5]: 0.78 µg/mL (≈ 1.9 µM) | MIC [6, 9]: 0.39 µg/mL (≈ 0.95 µM)

NC1CCN(c2ccc(F)cc2NC(=O)C(Cc2ccccc2)NC(=O)c2ccccc2F)CC1 (stereo not shown) [IX-312, N-(1-((2-(4-aminopiperidin-1-yl)-5-fluorophenyl)amino)-1-oxo-3-phenylpropan-2-yl)-2-fluorobenzamide]
MIC [2]: 3.13 µg/mL (≈ 6.54 µM) | cross-resistance of AAP1-resistant mutants to the compound [4]: cross-resistance | MIC [5]: 3.13 µg/mL (≈ 6.54 µM) | MIC [6, 9]: 0.195 µg/mL (≈ 0.407 µM)

O=C(NC(Cc1ccccc1)C(=O)Nc1cc(F)ccc1N1CC2CNCC2C1)c1ccccc1F (stereo not shown) [IX-313, 2-fluoro-N-(1-((5-fluoro-2-(hexahydropyrrolo[3,4-c]pyrrol-2(1H)-yl)phenyl)amino)-1-oxo-3-phenylpropan-2-yl)benzamide]
MIC [2]: 1.56 µg/mL (≈ 3.18 µM) | cross-resistance of AAP1-resistant mutants to the compound [4]: cross-resistance | MIC [5]: 1.56 µg/mL (≈ 3.18 µM) | MIC [6, 9]: 0.39 µg/mL (≈ 0.795 µM)

CO[C@H]1/C=C/O[C@@]2(C)Oc3c(C)c(O)c4c(O)c(c(/C=N/N5CCN(C)CC5)c(O)c4c3C2=O)NC(=O)/C(C)=C\C=C\[C@H](C)[C@H](O)[C@@H](C)[C@@H](O)[C@@H](C)[C@H](OC(C)=O)[C@@H]1C [rifampin, reference compound]
cross-resistance of AAP1-resistant mutants to the compound [4]: No AAP1-resistant mutant was found to exhibit cross-resistance | hypersensitivity of AAP1-resistant mutants to the compound [4]: Some AAP1 resistant mutants were found to be hypersensitive | MIC ([6]; ATCC19420, read-out: MIC with wild-type rpoB and wild-type rpoC, M. smegmatis ATCC19420 wild type, reference for AAP1-resistant mutants): 3.13 µg/mL (≈ 3.8 µM)
